Data reported in the supplement of paper PMC4862054.

Assays:
Conditions in all cases: incubation time: 72 h
MDA-MB-231 [1] = test: normalised response (% of control), CellTox Green; higher = less cell death (100 = DMSO, 0 = benzethonium chloride kill control)
In short: (§1)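 After 72 h with compound in 384-well plates, breast cancer cell lines seeded as 20 µl suspension were read for CellTox Green fluorescence at 485/520 nm. CellTiter-Glo luminescence was then read after 10 min at room temperature. Compound was present at 5 concentrations in 10-fold steps over a 10,000-fold range set per compound, and plates were normalised to 0.1 % DMSO (100) and a positive kill control (0). Values are normalised signals, each at a single concentration.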

MDA-MB-453 [2] = test: as above
In short: as §1

MCF-10A [3] = test: as above
In short: as §1

BT-549 [4] = test: as above
In short: as §1

HCC1143 [5] = test: as above
In short: as §1

DU-4475 [6] = test: as above
In short: as §1

MDA-MB-468 [7] = test: as above
In short: as §1

HDQ-P1 [8] = test: as above
In short: as §1

CAL-120 [9] = test: as above
In short: as §1

CAL-51 [10] = test: as above
In short: as §1

HCC1599 [11] = test: as above
In short: as §1

CAL-148 [12] = test: as above
In short: as §1

HCC1937 [13] = test: as above
In short: as §1

Hs578T [14] = test: as above
In short: as §1

MFM-223 [15] = test: as above
In short: as §1

CAL-85-1 [16] = test: as above
In short: as §1

BT-474 [17] = test: as above
In short: as §1

MDA-MB-231 [18] = test: normalised response (% of control), CellTiter-Glo; higher = more viable cells (100 = DMSO, 0 = benzethonium chloride kill control)
Protocol: (§2)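 DSRT, 72 h incubation, CellTox Green / CellTiter-Glo readout. Signal is normalised to DMSO and benzethonium chloride controls. Value is the normalised response at dose 3.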

MDA-MB-453 [19] = test: as above
Protocol: as §2

MCF-10A [20] = test: as above
Protocol: as §2

BT-549 [21] = test: as above
Protocol: as §2

HCC1143 [22] = test: as above
Protocol: as §2

DU-4475 [23] = test: as above
Protocol: as §2

MDA-MB-468 [24] = test: as above
Protocol: as §2

HDQ-P1 [25] = test: as above
Protocol: as §2

SK-BR-3 = test: as above
Protocol: as §2

CAL-120 [26] = test: as above
Protocol: as §2

CAL-51 [27] = test: as above
Protocol: as §2

HCC1599 [28] = test: as above
Protocol: as §2

CAL-148 [29] = test: as above
Protocol: as §2

HCC1937 [30] = test: as above
Protocol: as §2

Hs578T [31] = test: as above
Protocol: as §2

MDA-MB-436 [32] = test: as above
Protocol: as §2

MFM-223 [33] = test: as above
Protocol: as §2

CAL-85-1 [34] = test: as above
Protocol: as §2

BT-474 [35] = test: as above
Protocol: as §2

MDA-MB-436 [36] = test: normalised response (% of control), CellTox Green; higher = less cell death (100 = DMSO, 0 = benzethonium chloride kill control)
In short: as §1

Row | SMILES | normalised response (MDA-MB-231 [1]) | normalised response (MDA-MB-453 [2]) | normalised response (MCF-10A [3]) | normalised response (BT-549 [4]) | normalised response (HCC1143 [5]) | normalised response (DU-4475 [6]) | normalised response (MDA-MB-468 [7]) | normalised response (HDQ-P1 [8]) | normalised response (CAL-120 [9]) | normalised response (CAL-51 [10]) | normalised response (HCC1599 [11]) | normalised response (CAL-148 [12]) | normalised response (HCC1937 [13]) | normalised response (Hs578T [14]) | normalised response (MFM-223 [15]) | normalised response (CAL-85-1 [16]) | normalised response (BT-474 [17]) | normalised response (MDA-MB-231 [18]) | normalised response (MDA-MB-453 [19]) | normalised response (MCF-10A [20]) | normalised response (BT-549 [21]) | normalised response (HCC1143 [22]) | normalised response (DU-4475 [23]) | normalised response (MDA-MB-468 [24]) | normalised response (HDQ-P1 [25]) | normalised response (SK-BR-3) | normalised response (CAL-120 [26]) | normalised response (CAL-51 [27]) | normalised response (HCC1599 [28]) | normalised response (CAL-148 [29]) | normalised response (HCC1937 [30]) | normalised response (Hs578T [31]) | normalised response (MDA-MB-436 [32]) | normalised response (MFM-223 [33]) | normalised response (CAL-85-1 [34]) | normalised response (BT-474 [35]) | normalised response (MDA-MB-436 [36])
1 | O=C(CCCCCCC(=O)Nc1ccc([C@H]2O[C@@H](CSc3nc(-c4ccccc4)c(-c4ccccc4)o3)C[C@@H](c3ccc(CO)cc3)O2)cc1)NO [Tubacin] (100 nM) | 110% | 99.4% | 104% | 102% | 99% | 100% | 82.4% | 87.9% | 105% | 101% | 102% | 98.1% | 83.3% | 98.1% | 103% | 99.6% | 102% | 97% | 96.1% | 106% | 96.7% | 96% | 102% | 95.3% | 88.2% | 97.1% | 112% | 89.2% | 85.2% | 106% | 92.8% | 94.6% | 96.8% | 97% | 97.2% | 94.8% | –
2 | C=C(c1ccc(C(=O)O)cc1)c1cc2c(cc1C)C(C)(C)CCC2(C)C [Bexarotene] (100 nM) | – | 96.1% | 104% | 92.4% | 97.9% | 98.8% | 108% | 108% | 99.7% | 96.9% | 105% | 95.2% | 105% | 98.7% | 81.8% | 95.8% | 97% | 101% | 117% | 91.8% | 105% | 104% | 104% | 104% | 104% | 88.6% | 104% | 80.1% | 90.8% | 101% | 100% | 95.9% | 98% | 108% | 105% | 109% | 94.1%
3 | C[C@]12CC[C@@H]3c4ccc(O)cc4C[C@@H](CCCCCCCCC[S+]([O-])CCCC(F)(F)C(F)(F)F)[C@H]3[C@@H]1CC[C@@H]2O (some centres undefined) [Fulvestrant] (10 nM) | 115% | 79.4% | 104% | 104% | 107% | 103% | 86.1% | 97.2% | 101% | 109% | 105% | 104% | 121% | 100% | – | 102% | 99.8% | 106% | 103% | 109% | 106% | 105% | 101% | 108% | 96.1% | 105% | 103% | 111% | 108% | 105% | 92.8% | 102% | 103% | 104% | 97.9% | 104% | 107%
4 | CCC1(c2ccc(N)cc2)CCC(=O)NC1=O (centres undefined) [Aminoglutethimide] (100 nM) | 98% | 103% | 99.1% | 98% | 96.9% | 98.3% | 119% | 88.9% | 98.6% | 113% | 104% | – | 102% | 103% | 92.2% | 106% | 101% | 104% | 103% | 94.1% | 108% | 95.3% | 100% | 100% | 98.5% | 99.3% | 108% | 117% | 90.5% | 105% | 94.7% | 98.3% | 98.3% | 102% | 107% | 99.1% | 109%
5 | CCC(C)(C)C(=O)O[C@H]1C[C@@H](C)C=C2C=C[C@H](C)[C@H](CC[C@@H]3C[C@@H](O)CC(=O)O3)[C@H]21 [Simvastatin] (100 nM) | 115% | 77.8% | 107% | 59.3% | 91% | 105% | 94.2% | 78.8% | – | 113% | 95.1% | 99.7% | 68.8% | 75.5% | 102% | – | 97.3% | 98.6% | 95.5% | 111% | 94.5% | 105% | 98.4% | 93.7% | 102% | 105% | 100% | 104% | 89.2% | 107% | 99% | 102% | 99.7% | 105% | 98.9% | 97.5% | –
6 | C#Cc1cccc(Nc2ncnc3cc(OCCOC)c(OCCOC)cc23)c1 [Erlotinib] (100 nM) | – | 106% | 85.9% | 93% | 114% | 102% | 118% | 108% | 95.6% | 111% | 104% | 103% | 107% | 75.5% | 103% | 86.2% | 101% | 118% | 109% | 65% | 105% | 102% | 105% | 90.8% | 74% | 112% | 98.1% | 105% | 102% | 115% | 99% | 100% | 102% | 103% | 100% | 98.3% | 98.9%
